Like-named read-outs stand apart in the source and are kept apart here.
Legend:
[1] = Stability / reaction kinetics by proton NMR (half-life); assay type: physicochemical; details: for Half-life / Half-life w/10 eq GSH: 37° C., pH 7.4, BisTris buffer, 5% DMSO
Source text: Proton NMR was used to determine the half-lives for chloro- and bromomethyl-MIBG (Table 1). These analogs react with nucleophiles via an SN2 mechanism; therefore, the rate of the reaction depends on the strength and concentration of the nucleophile as well as the nature of the leaving group. Thus, the half-lives of the analogs are predictably longer in buffer than they are in buffer with added glutathione (a relatively strong nucleophile) and, under the same conditions, the bromo analog (better leaving group) reacts faster than the chloro analog.

SK—N-BE(2c) (high NET) = experiment: Glutathione depletion in vitro, SK-N-BE(2c); assay type: cell-based
Method: (§1) The NB cell line SK—N-BE(2c) (high net) was treated with MIBG, MIBG-disulfide dimer (MIGB-S—S-MIBG), chloromethyl-MIBG (cmMIBG), and BSO. For comparison, the human breast cancer line MCF7 (no NET) was treated with chloromethyl-MIBG and BSO. At specific times, intracellular glutathione in drug-treated cells was determined relative to that in untreated cells (control).
SK—N-BE(2c) (high NET) cells were treated with a single concentration of chloromethyl-MIBG (25 μM at t=0). Glutathione concentrations in treated and untreated cells were measured at t=0.5, 1, 2, 3 and 4 hrs. Glutathione levels in drug-treated cells progressively fell, with a concentration 50% that of control at t 4 hrs (FIG. 10B).
(§2) Cells were exposed to 5 μM chloromethyl-MIBG (cmMIBG), 25 μM BSO and a combination of 5 μM chloromethyl-MIBG+25 μM BSO (both) for 7 hrs. Compared to controls, chloromethyl-MIBG alone depleted glutathione by about 30% in SK—N—Be(2c) cells and 8% in MCF7. BSO, as expected, depleted MCF7 and SK—N—Be(2c) by similar amounts (42 and 54% of controls, respectively). In combination studies, chloromethyl-MIBG+BSO depleted levels by about 85% in the SK—N—Be(2c) cells and had much less effect on the MCF7 cells with glutathione reduced by 49% relative to controls.

NET = biological target: T1, NET (Homo sapiens, UniProt P23975); experiment: NET competitive binding assay ([125I]MIBG displacement, SK-N-SH cells); details: 5 μM test compound, 2 hr incubation
T1 construct: endogenous in cells; host or cells: SK-N-SH neuroblastoma cells
Method: An assay to assess binding of various MIBG-analogs to the NET was performed by published methods (Vaidynathan et al, Nucl. Med. Commun. 25:947-955 (2004), Vaidynathan et al, Bioorg. Med. Chem. 12:1649-1656 (2004), Vaidynathan et al, Bioconjugate Chem. 12:798-806 (2001), Vaidynathan et al, Eur. J. Nucl. Med. Mol. Imaging 31:1362-1370 (2004)). In brief, neuroblastoma SK—N—SH cells (moderate levels of NET) were treated with [^125I]MIBG and with increasing concentrations of unlabeled MIBG or MIBG-analogs. At the end of a 2 hr incubation and appropriate work-up, the cell-bound radioactivity was counted. Total cell-bound radioactivity minus non-specific cell-bound radioactivity gave a value for specific binding which was plotted in FIG. 9 against the concentration of test compounds. At 5 μM, cold MIBG displaced “100%” of the labeled-MIBG (i.e., “zero” cell-bound radioactivity). At 5 μM, chloromethyl-MIBG displaced 83%; the disulfide MIBG-SS-ethyl and the ester MIBG-phenylbutyrate displaced 50-55%; and hydroxymethyl-MIBG displaced 27%.

MCF7 (NET 0) = experiment: in vitro; assay type: cell-based, human
[2] = Maximum tolerated dose (MTD) study in mice; assay type: in vivo
Method: The MTD study utilized 4 groups of 5 HRLN female nu/nu mice. Mice in each group were injected i.v. with a single dose of chloromethyl-MIBG in 1% DMSO in water [5, 10, 15, or 20 mg/kg (drug/animal)]. Drug solutions were made fresh at room temperature and injections were completed within 20 minutes of making the drug solution (under these conditions, the half-life of chloromethyl-MIBG was estimated to be >10 hrs). The dosing volume was 0.20 mL/20 g mouse (adjusted accordingly for body weight). Animals were followed for 21 days post-injection; body weight was monitored daily for 5 days and then biweekly. The “endpoint MTD” was defined as a mean weight loss of >20% or death of >10% of animals in a group.

SK-N-MC (NET ++) = experiment: Cytotoxicity, MTT assay, SK-N-MC; assay type: cell-based; details: 24 hr assay, 1% EtOH
IMR32 (NET 0/+) = experiment: Cytotoxicity, MTT assay, IMR32; assay type: cell-based; details: 24 hr assay, 1% EtOH
SK-N-BE(2c) (NET ++++) = experiment: cells; assay type: cell-based
SK-N-SH (NET ++) = experiment: Cytotoxicity, MTT assay, SK-N-SH; assay type: cell-based
MCF7 (no NET) = experiment: Glutathione depletion in vitro, MCF7; assay type: cell-based, human; details: 5 μM chloromethyl-MIBG, 7 hrs
Method: as §1, §2

in vitro = assay type: cell-based, human; details: human; for IC50 at 24 h: 24 hr assay
[3] = (101×C3H)F1 male mice, cited from earlier work
[4] = 24 hr assay, 1% EtOH, read-out: Cytotoxicity IC50
[5] = 24 hr assay, single agent, 1% DMSO, read-out: Cytotoxicity IC50
[6] = 48 hr assay (24 h exposure + 24 h recovery), Table 3, read-out: Cytotoxicity IC50
[7] = 48 hr assay, + 1.5 μM desipramine (40 min pre-treatment, then co-incubation), read-out: Cytotoxicity IC50, NET inhibition experiment
[8] = 48 hr assay, single agent, Table 4, read-out: Cytotoxicity IC50
[9] = 48 hr assay, without desipramine, read-out: Cytotoxicity IC50, NET inhibition experiment
[10] = groups dosed at 10, 15 and 20 mg/kg i.v.

T1 sequence (P23975 whole entry): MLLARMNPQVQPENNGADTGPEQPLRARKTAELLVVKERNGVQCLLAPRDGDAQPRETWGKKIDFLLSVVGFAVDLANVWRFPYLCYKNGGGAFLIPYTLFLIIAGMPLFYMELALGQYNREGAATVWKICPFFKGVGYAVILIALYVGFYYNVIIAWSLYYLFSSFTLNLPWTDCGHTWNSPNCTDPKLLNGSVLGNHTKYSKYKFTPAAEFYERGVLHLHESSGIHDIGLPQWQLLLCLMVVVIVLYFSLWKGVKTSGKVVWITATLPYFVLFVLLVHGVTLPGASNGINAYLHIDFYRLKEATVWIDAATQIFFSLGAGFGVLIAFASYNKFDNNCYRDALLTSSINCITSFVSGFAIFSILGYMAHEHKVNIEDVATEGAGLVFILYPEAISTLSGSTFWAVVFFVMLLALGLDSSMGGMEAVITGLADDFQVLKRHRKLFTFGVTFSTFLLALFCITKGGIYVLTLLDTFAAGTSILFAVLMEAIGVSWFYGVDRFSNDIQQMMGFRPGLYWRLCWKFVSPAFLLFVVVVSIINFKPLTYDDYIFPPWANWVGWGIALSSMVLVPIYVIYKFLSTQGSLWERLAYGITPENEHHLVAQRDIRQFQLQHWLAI

SMILES: N=C(N)NCc1ccc(CBr)c(I)c1 [Bromomethyl-MIBG]
- Half-life [1]: 42.5 ± 0.7 min
- Half-life w/10 eq GSH [1]: <0.083 min

SMILES: N=C(N)NCc1cccc([131I])c1 [MIBG, meta-iodobenzylguanidine]
- effect on glutathione levels (SK—N-BE(2c) (high NET); concentrations up to 25 μM, incubation up to 4 hrs): did not significantly affect glutathione levels
- displacement of [125I]MIBG (specific cell-bound radioactivity) (NET): 100%

SMILES: N=C(N)NCc1ccc(CSSCc2ccc(CNC(=N)N)cc2I)c(I)c1 [MIBG-disulfide dimer]
- effect on glutathione levels (SK—N-BE(2c) (high NET); 5 μM): a transient loss of glutathione was observed
- time for glutathione to return to pre-treatment levels (SK—N-BE(2c) (high NET); 5 μM): ≤ 8 h
- effect on glutathione levels and cell viability (SK—N-BE(2c) (high NET); higher concentrations (25 and 100 microM), up to 8 hrs): extensive loss of glutathione and cell viability with no recovery

SMILES: N=C(N)NCc1ccc(CO)c(I)c1 [hydroxymethyl-MIBG]
- displacement of [125I]MIBG (specific cell-bound radioactivity) (NET): 27%

SMILES: N=C(N)NCc1ccc(CCl)c(I)c1 [Chloromethyl-MIBG]
- IC50 (MCF7 (NET 0); [4]): 50 µM
- IC50 (MCF7 (NET 0); [5]): 56.9 ± 6.2 µM
- IC50 (MCF7 (NET 0); [6]): 14.3 ± 2.13 µM
- IC50 (MCF7 (NET 0); [7]): 20.2 ± 1.9 µM
- IC50 (MCF7 (NET 0); [8]): 14.3 ± 2.1 µM
- IC50 (MCF7 (NET 0); [9]): 19.8 ± 1.3 µM
- animal deaths over the course of the study ([2]; 5-20 mg/kg single i.v. dose, 21 days): no animal deaths
- MTD ([2]; HRLN female nu/nu mice, single i.v. dose, 21 days follow-up): > 20 mg/kg
- adverse signs upon drug injection [2, 10]: signs of hypoactivity, labored breathing, darkening of skin color, and/or seizures/tremors
- time for adverse symptoms to go away [2, 10]: ≤ 30 s
- IC50 (SK-N-MC (NET ++)): 25 µM
- IC50 (IMR32 (NET 0/+)): 63 µM
- half-life of drug solution ([1]; 1% DMSO in water, room temperature, estimated): > 600 min
- Half-life [1]: 580 ± 25 min
- Half-life w/10 eq GSH [1]: 0.843 ± 0.0533 min
- IC50 (SK-N-BE(2c) (NET ++++); [4]): 5 µM
- IC50 (SK-N-BE(2c) (NET ++++); [5]): 5.7 ± 1.5 µM
- IC50 (SK-N-BE(2c) (NET ++++); [6]): 4.63 ± 1.58 µM
- IC50 (SK-N-BE(2c) (NET ++++); [7]): 14.3 ± 1.7 µM
- IC50 (SK-N-BE(2c) (NET ++++); [8]): 4.6 ± 1.6 µM
- IC50 (SK-N-BE(2c) (NET ++++); [9]): 3.2 ± 0.6 µM
- increase in IC50 in presence of desipramine (SK-N-BE(2c) (NET ++++); with vs without desipramine): ~5 fold
- IC50 (SK-N-SH (NET ++); [6]): 18.4 ± 9.1 µM
- IC50 (SK-N-SH (NET ++); [8]): 18.4 ± 9.1 µM
- glutathione depletion compared to controls (MCF7 (no NET)): 8%
- glutathione depletion compared to controls (SK—N-BE(2c) (high NET); 5 μM chloromethyl-MIBG, 7 hrs): about 30%
- glutathione concentration relative to control (SK—N-BE(2c) (high NET); 25 μM at t=0, measured at 4 hrs): 50%
- displacement of [125I]MIBG (specific cell-bound radioactivity) (NET): 83%

SMILES: N[C@@H](Cc1ccc(N(CCCl)CCCl)cc1)C(=O)O [Melphalan]
- IC50 at 24 h (in vitro; + 5 μM MIBG, read-out: Cytotoxicity IC50 of melphalan): 386 ± 181 µM
- IC50 at 24 h (in vitro; + 5 μM cmMIBG (Table 2D), read-out: Cytotoxicity IC50 of melphalan): 276 ± 28 µM
- IC50 at 24 h (in vitro; single agent, 1% DMSO, read-out: Cytotoxicity IC50): 250 ± 112 µM
- IC50 at 48 h (in vitro; [6]): 126 ± 28 µM
- IC50 at 48 h (in vitro; 48 hr assay, + 1 μM cmMIBG added at same time, read-out: Cytotoxicity IC50 of melphalan): 127 ± 17 µM
- IC50 at 48 h (in vitro; 48 hr assay, + 5 μM cmMIBG added at same time, read-out: Cytotoxicity IC50 of melphalan): 75 ± 25 µM
- IC50 at 48 h (in vitro; 48 hr assay, cells treated with 1 μM cmMIBG for 3 hrs, then melphalan added, read-out: Cytotoxicity IC50 of melphalan): 60 ± 7 µM
- IC50 at 48 h (in vitro; 48 hr assay, cells treated with 5 μM cmMIBG for 3 hrs, then melphalan added, read-out: Cytotoxicity IC50 of melphalan): 43 ± 11 µM
- IC50 at 48 h (in vitro; [8]): 126 ± 28 µM
- death rate ([3]; 20 mg/kg single injection i.p., by one week): 100%
- MTD ([3]; single injection, i.p.): 10 to 15 mg/kg
- IC50 (SK-N-BE(2c) (NET ++++); SK-N-BE(2)-C, 24 h, read-out: Cytotoxicity IC50, 24 hr assay, single agent, 1% DMSO): 36.2 ± 5.2 µM
- IC50 (SK-N-BE(2c) (NET ++++); SK-N-BE(2)-C, 24 h, read-out: Cytotoxicity IC50 of melphalan, 24 hr assay, + 5 μM MIBG): 43.5 ± 7 µM
- IC50 (SK-N-BE(2c) (NET ++++); SK-N-BE(2)-C, 24 h, read-out: Cytotoxicity IC50 of melphalan, 24 hr assay, + 5 μM cmMIBG (Table 2D)): 11.3 ± 5.4 µM
- IC50 (SK-N-BE(2c) (NET ++++); SK-N-BE(2)-C, 24 h, read-out: Cytotoxicity IC50 of melphalan, competition experiment, 24 hr assay, + 5 μM cmMIBG + 5 μM MIBG): 22.9 µM
- IC50 (SK-N-BE(2c) (NET ++++); SK-N-BE(2)-C, 24 h, read-out: Cytotoxicity IC50 of melphalan, competition experiment, 24 hr assay, + 5 μM cmMIBG plus vehicle (no MIBG)): 8.1 µM
- IC50 (SK-N-BE(2c) (NET ++++); SK-N-BE(2)-C, 48 h, read-out: Cytotoxicity IC50, 48 hr assay, single agent, Table 4): 25.8 ± 3.5 µM
- IC50 (SK-N-BE(2c) (NET ++++); SK-N-BE(2)-C, 48 h, read-out: Cytotoxicity IC50 of melphalan, 48 hr assay, + 1 μM cmMIBG added at same time): 13.9 ± 4.7 µM
- IC50 (SK-N-BE(2c) (NET ++++); SK-N-BE(2)-C, 48 h, read-out: Cytotoxicity IC50 of melphalan, 48 hr assay, + 5 μM cmMIBG added at same time): 7.3 ± 1.3 µM
- IC50 (SK-N-BE(2c) (NET ++++); SK-N-BE(2)-C, read-out: Cytotoxicity IC50, 48 hr assay (24 h exposure + 24 h recovery), Table 3): 25.8 ± 3.54 µM
- IC50 (SK-N-BE(2c) (NET ++++); SK-N-BE(2)-C, read-out: Cytotoxicity IC50 of melphalan, 48 hr assay, cells treated with 1 μM cmMIBG for 3 hrs, then melphalan added): 14 ± 3.7 µM
- IC50 (SK-N-BE(2c) (NET ++++); SK-N-BE(2)-C, read-out: Cytotoxicity IC50 of melphalan, 48 hr assay, cells treated with 5 μM cmMIBG for 3 hrs, then melphalan added): 10.2 ± 0.9 µM
- IC50 (SK-N-SH (NET ++); Homo sapiens, SK-N-SH, 48 h, read-out: Cytotoxicity IC50, 48 hr assay, single agent, Table 4): 54.1 ± 13.8 µM
- IC50 (SK-N-SH (NET ++); Homo sapiens, SK-N-SH, 48 h, read-out: Cytotoxicity IC50 of melphalan, 48 hr assay, + 1 μM cmMIBG added at same time): 36.7 ± 18.7 µM
- IC50 (SK-N-SH (NET ++); Homo sapiens, SK-N-SH, 48 h, read-out: Cytotoxicity IC50 of melphalan, 48 hr assay, + 5 μM cmMIBG added at same time): 29.9 ± 10.6 µM
- IC50 (SK-N-SH (NET ++); Homo sapiens, SK-N-SH, read-out: Cytotoxicity IC50, 48 hr assay (24 h exposure + 24 h recovery), Table 3): 54.1 ± 13.8 µM
- IC50 (SK-N-SH (NET ++); Homo sapiens, SK-N-SH, read-out: Cytotoxicity IC50 of melphalan, 48 hr assay, cells treated with 1 μM cmMIBG for 3 hrs, then melphalan added): 29.8 ± 4.8 µM
- IC50 (SK-N-SH (NET ++); Homo sapiens, SK-N-SH, read-out: Cytotoxicity IC50 of melphalan, 48 hr assay, cells treated with 5 μM cmMIBG for 3 hrs, then melphalan added): 38.4 ± 7.7 µM
